Calls of active or inactive are those of the source.
Legend:
[1] = biological target: T1, Mitogen-activated protein kinase kinase kinase 6 (Homo sapiens, UniProt O95382)
T1 sequence (O95382 whole entry): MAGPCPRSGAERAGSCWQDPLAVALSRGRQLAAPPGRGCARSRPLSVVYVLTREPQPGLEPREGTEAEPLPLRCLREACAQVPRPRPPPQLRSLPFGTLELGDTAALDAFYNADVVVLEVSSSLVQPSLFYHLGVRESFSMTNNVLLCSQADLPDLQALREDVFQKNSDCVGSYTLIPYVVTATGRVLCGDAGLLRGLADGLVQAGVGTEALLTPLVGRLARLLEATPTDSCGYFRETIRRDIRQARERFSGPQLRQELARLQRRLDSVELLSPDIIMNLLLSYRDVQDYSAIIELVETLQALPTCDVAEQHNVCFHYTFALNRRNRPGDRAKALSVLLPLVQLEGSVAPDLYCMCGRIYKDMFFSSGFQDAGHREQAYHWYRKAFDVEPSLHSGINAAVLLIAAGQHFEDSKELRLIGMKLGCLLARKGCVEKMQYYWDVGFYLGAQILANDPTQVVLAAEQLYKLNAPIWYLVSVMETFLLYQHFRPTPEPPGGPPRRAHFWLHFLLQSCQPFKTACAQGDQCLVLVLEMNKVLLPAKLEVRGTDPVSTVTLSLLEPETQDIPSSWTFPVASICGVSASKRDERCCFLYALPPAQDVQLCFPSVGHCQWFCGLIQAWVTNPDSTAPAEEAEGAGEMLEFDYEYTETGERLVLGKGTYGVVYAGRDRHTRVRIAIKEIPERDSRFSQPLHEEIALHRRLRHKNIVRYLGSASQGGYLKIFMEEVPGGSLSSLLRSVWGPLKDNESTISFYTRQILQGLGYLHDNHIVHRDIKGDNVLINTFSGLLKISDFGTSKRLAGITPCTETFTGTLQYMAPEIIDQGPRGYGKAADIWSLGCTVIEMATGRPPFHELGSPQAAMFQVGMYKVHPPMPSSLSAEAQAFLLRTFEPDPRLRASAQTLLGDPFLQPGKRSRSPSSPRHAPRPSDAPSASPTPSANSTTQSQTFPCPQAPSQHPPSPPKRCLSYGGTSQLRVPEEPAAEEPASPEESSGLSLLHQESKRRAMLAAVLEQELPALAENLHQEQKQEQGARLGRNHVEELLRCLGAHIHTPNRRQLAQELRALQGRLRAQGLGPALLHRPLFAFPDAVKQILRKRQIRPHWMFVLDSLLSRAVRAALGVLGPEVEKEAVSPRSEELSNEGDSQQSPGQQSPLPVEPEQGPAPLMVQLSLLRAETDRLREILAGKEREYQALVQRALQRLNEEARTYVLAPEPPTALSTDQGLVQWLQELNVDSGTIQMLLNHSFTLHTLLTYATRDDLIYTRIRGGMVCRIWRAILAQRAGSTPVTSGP

[2] = biological target: T2, Very long-chain specific acyl-CoA dehydrogenase, mitochondrial (Homo sapiens, UniProt P49748)
T2 sequence (P49748 whole entry): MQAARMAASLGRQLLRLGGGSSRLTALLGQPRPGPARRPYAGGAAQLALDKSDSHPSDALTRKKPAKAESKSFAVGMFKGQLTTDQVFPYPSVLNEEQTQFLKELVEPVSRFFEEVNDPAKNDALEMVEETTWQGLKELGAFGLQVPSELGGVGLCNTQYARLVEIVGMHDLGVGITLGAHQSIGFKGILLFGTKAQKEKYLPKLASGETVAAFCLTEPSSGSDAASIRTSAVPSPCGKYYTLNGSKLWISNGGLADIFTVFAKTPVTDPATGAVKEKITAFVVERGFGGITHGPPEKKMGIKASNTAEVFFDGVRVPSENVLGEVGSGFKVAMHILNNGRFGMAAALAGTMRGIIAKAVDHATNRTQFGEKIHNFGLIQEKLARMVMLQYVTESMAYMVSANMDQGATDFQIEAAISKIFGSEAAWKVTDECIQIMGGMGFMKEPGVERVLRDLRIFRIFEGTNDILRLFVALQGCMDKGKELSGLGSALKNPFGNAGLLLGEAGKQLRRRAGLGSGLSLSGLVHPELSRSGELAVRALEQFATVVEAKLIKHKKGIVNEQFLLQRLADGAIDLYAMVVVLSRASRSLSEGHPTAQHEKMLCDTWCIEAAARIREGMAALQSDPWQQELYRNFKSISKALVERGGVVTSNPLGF

[3] = biological target: T3, Beta-adrenergic receptor kinase 1 (Homo sapiens, UniProt P25098)
T3 sequence (P25098 whole entry): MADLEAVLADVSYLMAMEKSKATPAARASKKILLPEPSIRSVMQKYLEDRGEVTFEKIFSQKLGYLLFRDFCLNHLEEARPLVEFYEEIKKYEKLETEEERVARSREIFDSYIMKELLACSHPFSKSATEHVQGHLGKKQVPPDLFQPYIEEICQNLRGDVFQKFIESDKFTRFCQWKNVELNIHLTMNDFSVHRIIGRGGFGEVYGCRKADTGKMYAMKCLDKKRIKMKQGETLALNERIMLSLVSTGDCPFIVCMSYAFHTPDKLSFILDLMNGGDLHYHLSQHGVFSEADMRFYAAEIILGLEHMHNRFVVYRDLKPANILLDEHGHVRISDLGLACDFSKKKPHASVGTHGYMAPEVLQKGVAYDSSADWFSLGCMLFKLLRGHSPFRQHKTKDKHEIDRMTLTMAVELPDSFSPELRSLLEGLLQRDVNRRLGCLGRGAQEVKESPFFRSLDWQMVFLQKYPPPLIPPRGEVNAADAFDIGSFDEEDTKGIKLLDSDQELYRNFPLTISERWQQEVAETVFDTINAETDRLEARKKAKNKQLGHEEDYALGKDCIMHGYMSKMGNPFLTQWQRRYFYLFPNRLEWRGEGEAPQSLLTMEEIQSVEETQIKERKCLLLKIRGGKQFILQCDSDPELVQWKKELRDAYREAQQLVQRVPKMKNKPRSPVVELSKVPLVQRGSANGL

[4] = biological target: T4, Phosphorylase b kinase gamma catalytic chain, liver/testis isoform (Homo sapiens, UniProt P15735)
T4 sequence (P15735 whole entry): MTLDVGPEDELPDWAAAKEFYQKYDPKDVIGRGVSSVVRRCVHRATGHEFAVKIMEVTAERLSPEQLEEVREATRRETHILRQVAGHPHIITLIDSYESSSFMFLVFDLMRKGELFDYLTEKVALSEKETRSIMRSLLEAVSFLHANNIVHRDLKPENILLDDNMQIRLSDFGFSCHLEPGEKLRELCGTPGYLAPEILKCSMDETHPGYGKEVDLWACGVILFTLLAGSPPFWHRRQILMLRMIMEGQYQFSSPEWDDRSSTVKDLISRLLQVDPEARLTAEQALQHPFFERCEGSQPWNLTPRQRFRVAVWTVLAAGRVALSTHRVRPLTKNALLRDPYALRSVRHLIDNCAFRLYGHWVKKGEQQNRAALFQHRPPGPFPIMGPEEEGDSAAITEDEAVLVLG
Also: in the data inactive means no Kd found up to 30 µM.

Kd [1] | Kd [2] | Kd [3] | Kd [4] | Structure (SMILES)
> 30 µM (inactive) | > 30 µM (inactive) | > 30 µM (inactive) | > 30 µM (inactive) | C[C@@H](Nc1cc(F)cc(F)c1)c1cc(C(=O)N(C)C)cc2c(=O)cc(N3CCOCC3)oc12 [AZD-8186]
> 30 µM (inactive) | > 30 µM (inactive) | > 30 µM (inactive) | > 30 µM (inactive) | Cc1cc([C@@H](C)Nc2ccccc2C(=O)O)c2nc(N3CCOCC3)cc(=O)n2c1 [AZD-6482]
> 30 µM (inactive) | > 30 µM (inactive) | > 30 µM (inactive) | > 30 µM (inactive) | CCS(=O)(=O)N1CC(CC#N)(n2cc(-c3ncnc4[nH]ccc34)cn2)C1 [BARICITINIB]
> 30 µM (inactive) | > 30 µM (inactive) | > 30 µM (inactive) | > 30 µM (inactive) | CN1N=C(N)c2cn([C@@H]3O[C@H](COP(=O)(O)O)[C@@H](O)[C@H]3O)c3ncnc1c23 [TRICIRIBINE PHOSPHATE]
> 30 µM (inactive) | > 30 µM (inactive) | > 30 µM (inactive) | > 30 µM (inactive) | CNC(=O)c1cc(Oc2ccc(NC(=O)Nc3ccc(Cl)c(C(F)(F)F)c3)c(F)c2)ccn1 [REGORAFENIB]
> 30 µM (inactive) | > 30 µM (inactive) | > 30 µM (inactive) | > 30 µM (inactive) | O=C(Nc1ccc(-c2ccnc(Nc3ccc(N4CCOCC4)cc3)n2)cc1)C1CCCN1 (configuration not stated) [XL-019]
> 30 µM (inactive) | > 30 µM (inactive) | > 30 µM (inactive) | > 30 µM (inactive) | CNS(=O)(=O)Nc1nccc(Cc2c(C)c3ccc(Oc4ncccn4)cc3oc2=O)c1F [AVUTOMETINIB]
> 30 µM (inactive) | > 30 µM (inactive) | > 30 µM (inactive) |  | Cc1cc(Nc2cc(N3CCN(C)CC3)nc(/C=C/c3ccccc3)n2)n[nH]1 [ENMD-2076]
> 30 µM (inactive) | > 30 µM (inactive) | > 30 µM (inactive) | > 30 µM (inactive) | CCCS(=O)(=O)Nc1ccc(F)c(C(=O)c2c[nH]c3ncc(-c4ccc(Cl)cc4)cc23)c1F [VEMURAFENIB]
1.57 µM | > 30 µM (inactive) | > 30 µM (inactive) | > 30 µM (inactive) | COc1cc2nccc(Oc3ccc(NC(=O)NC4CC4)c(Cl)c3)c2cc1C(N)=O [LENVATINIB]
> 30 µM (inactive) | > 30 µM (inactive) | > 30 µM (inactive) | > 30 µM (inactive) | Cc1cc2c(F)c(Oc3ncnn4cc(OC[C@@H](C)OC(=O)[C@H](C)N)c(C)c34)ccc2[nH]1 [BRIVANIB ALANINATE]
> 30 µM (inactive) | > 30 µM (inactive) | > 30 µM (inactive) | > 30 µM (inactive) | Cc1ccc(S(=O)(=O)Nc2nc3ccccc3nc2Nc2ccc3nsnc3c2)cc1
> 30 µM (inactive) | > 30 µM (inactive) | > 30 µM (inactive) | > 30 µM (inactive) | Cc1c(F)cc(C(=O)NC2CC2)cc1-c1ccc(C(=O)NCC(C)(C)C)cn1 [LOSMAPIMOD]
> 30 µM (inactive) | > 30 µM (inactive) | > 30 µM (inactive) | > 30 µM (inactive) | COc1cc(N2CCC(N3CCN(C)CC3)CC2)ccc1Nc1ncnc(Nc2ccccc2S(=O)(=O)C(C)C)n1 [ASP-3026]
 | 1.69 µM | > 30 µM (inactive) |  | Nc1nc(N)c2nc(-c3cccc(O)c3)c(-c3cccc(O)c3)nc2n1 [TG100-115]
> 30 µM (inactive) | > 30 µM (inactive) | > 30 µM (inactive) | > 30 µM (inactive) | CCn1c(=O)c(-c2cc[nH]n2)cc2c(C)nc(N)nc21 [VOXTALISIB]
> 30 µM (inactive) | > 30 µM (inactive) | > 30 µM (inactive) | > 30 µM (inactive) | CC(=O)Nc1cccc(-n2c(=O)n(C3CC3)c(=O)c3c(Nc4ccc(I)cc4F)n(C)c(=O)c(C)c32)c1 [TRAMETINIB]
> 30 µM (inactive) | > 30 µM (inactive) | > 30 µM (inactive) | > 30 µM (inactive) | CCN1CCN(Cc2ccc(-c3cc4c(N[C@H](C)c5ccccc5)ncnc4[nH]3)cc2)CC1 [AEE-788]
> 30 µM (inactive) | > 30 µM (inactive) | > 30 µM (inactive) | > 30 µM (inactive) | O=C1NC(=O)/C(=C/c2ccc3nccc(-c4ccncc4)c3c2)S1 [GSK-1059615]
 | > 30 µM (inactive) | > 30 µM (inactive) |  | CCn1c(-c2nonc2N)nc2c(C#CC(C)(C)O)ncc(OC[C@H]3CCCNC3)c21 [GSK-690693]
 | > 30 µM (inactive) | > 30 µM (inactive) |  | CN1CCN(c2ccc3nc(-c4c(N)c5c(F)cccc5[nH]c4=O)[nH]c3c2)CC1 [DOVITINIB]
> 30 µM (inactive) | > 30 µM (inactive) | > 30 µM (inactive) |  | Cc1nc(N)sc1-c1ccnc(Nc2ccc(N3CCOCC3)cc2)n1 [CYC-116]

Structure (SMILES) | Kd [1] | Kd [2] | Kd [3] | Kd [4]
C=CC(=O)N1CCC(Oc2cc3c(Nc4ccc(Cl)c(Cl)c4F)ncnc3cc2OC)CC1 [POZIOTINIB] | > 30 µM (inactive) | > 30 µM (inactive) | > 30 µM (inactive) | > 30 µM (inactive)
O=C(Nc1cccc(Cl)c1)Nc1ncc(CCNc2ncnc3ccsc23)s1 [SNS-314] | > 30 µM (inactive) | > 30 µM (inactive) |  | 
CN1CC[C@@H](c2c(O)cc(O)c3c(=O)cc(-c4ccccc4Cl)oc23)[C@@H]1CO | > 30 µM (inactive) | > 30 µM (inactive) | > 30 µM (inactive) | > 30 µM (inactive)
Cc1cn(-c2cc(NC(=O)c3ccc(C)c(Nc4nccc(-c5cccnc5)n4)c3)cc(C(F)(F)F)c2)cn1 [NILOTINIB] |  | > 30 µM (inactive) | > 30 µM (inactive) | 

Reference: ChEMBL document CHEMBL3991601, “The target landscape of clinical kinase drugs” (Science, 2017)
